Patent publication US20050287192A1, “Wound bandage comprising a non-enzymatic antioxidant” (priority 2002, published 2005)
“Also recorded” adds a separate entry of the source.

What was measured:
Format in all cases: cell-based, human
leukocytes [1] = test: ability of leukocytes to kill bacteria in presence of additives in solution (CFU count); settings: additive 10 mM in solution; leukocytes 1×10^5 cells/ml and Staphylococcus aureus 1×10^6 cells/ml, 37° C., two hours; FIG. 6
Protocol: The ability of leukocytes to kill bacteria in the presence of glutathione (10 mM) or N-acetylcysteine (10 mM) in solution was studied in the following manner: Leukocytes (1×10^5 cells/ml) and Staphylococcus aureus (1×10^6 cells/ml) were incubated together at 37° C. for two hours. The leukocytes were killed and the remaining bacteria were allowed to grow on a blood agar plate for 24 hours, after which the number of bacterial colonies (CFU) was calculated. Control samples without leukocytes were done in parallel with all the tests. A small number of colonies means that the leukocytes have good ability to kill bacteria.

leukocytes [2] = test: ability of leukocytes to be activated by zymosan after contact with cotton wool compresses; settings: after contact with cotton wool compress with additive; FIG. 4
Protocol: The ability of the leukocytes to react against a microbial agent after contact with the cotton wool compresses was then tested by addition of zymosan, a fungal spore used to test the ability of the leukocytes to kill microbes.

leukocytes [3] = test: lipid peroxidation of leukocyte cell membranes measured with fluorescent probe DPPP; settings: contact between leukocytes and treated cotton wool compress, DPPP fluorescence; FIG. 5
Protocol: Lipid peroxidation of cell membranes during the contact between leukocytes and cotton wool compresses was measured with a fluorescent probe, diphenyl-1-pyrenylphosphine (DPPP), which reacts with membrane peroxides and forms a fluorescent oxide, see Okimoto, Watanabe, et al., 2000 FEBS Letter, vol 474, pages 137-140.

leukocytes [4] = test: stress activation of leukocytes in contact with cotton wool compresses, release of reactive oxygen by luminol-enhanced chemiluminescence; settings: cotton wool compress with physiological saline solution with glutathione, final concentration 0.05 mM, vs untreated compress; FIG. 3
Protocol: First of all leukocytes were isolated from human veinous blood and the cells were then left in contact with cotton wool compresses and stress activation of the cells was measured as the release of reactive oxygen with luminol-enhanced chemiluminiscense.
From FIG. 1 it is apparent that the leukocytes are activated on contact with cotton wool compresses.
The cellulose is then reduced again with cyanoborohydride.

Structure (SMILES): CC(=O)N[C@@H](CS)C(=O)O [N-acetylcysteine]
- ability of leukocytes to kill bacteria (number of bacterial colonies, CFU) (leukocytes [1]): kill the bacteria completely

Structure (SMILES): N[C@@H](CCC(=O)N[C@@H](CS)C(=O)NCC(=O)O)C(=O)O [glutathione]
- ability of leukocytes to be activated by zymosan (leukocytes [2]): retain the ability to be activated by zymosan
- lipid peroxidation of the cell membrane (leukocytes [3]): reduce the lipid peroxidation of the cell membrane
- ability of leukocytes to kill bacteria (number of bacterial colonies, CFU) (leukocytes [1]): kill the bacteria completely
- activation of leukocytes (release of reactive oxygen) (leukocytes [4]): does not affect activation of the leukocytes; also recorded: somewhat increased quantity of reactive oxygen
